Source: the NIST ThermoML archive (doi:10.1016/j.fluid.2018.12.016)

Details: Liquid, Surface laser light scattering (SLLS)

C [methane] + CCCCCCCCCC
Details	interfacial tension [mN/m]
310.93 K, 36221 kPa	1.41e-05
310.94 K, 36221 kPa	1.93e-05
310.95 K, 36187 kPa	0.000902
310.96 K, 36198 kPa	0.000591
310.97 K, 34448 kPa	0.1569
310.97 K, 35150 kPa	0.08112
310.97 K, 35795 kPa	0.0247
310.97 K, 35857 kPa	0.01978
310.97 K, 35989 kPa	0.01122
310.97 K, 36092 kPa	0.00519
310.97 K, 36215 kPa	0.0001152
310.97 K, 36218 kPa	4.75e-05
310.98 K, 35498 kPa	0.04752
310.98 K, 35946 kPa	0.014
310.98 K, 36206 kPa	0.000326
310.99 K, 36151 kPa	0.002584
311 K, 36213 kPa	0.00015
311.12 K, 35885 kPa	0.01746
